Results published in US20220088195A1, “Prevention or mitigation of T-cell bispecific antibody-related adverse effects” (Hoffmann-La Roche Inc., priority 2020, published 2022).
“Also recorded” adds a separate entry of the source.

How the values were obtained:
Z138 target cells = assay: Two-stimulation killing assay, PBMCs + Z138 target cells + CD20-TCB; format: cell-based, human; conditions: 100 nM dasatinib upon re-stimulation; 1 nM CD20-TCB
Experimental: FIG. 23. In vitro killing assay set-up and timelines. PBMCs were co-cultured with carboxyfluorescein succinimidyl ester (CFSE) labelled Z138 target cells (E:T=5:1) and […] 1 nM CD20-TCB for 20h. Activated PBMCs were washed and restimulated on fresh, CTV labelled Z138 target cells (E:T=5:1) and 1 nM CD20-TCB in the presence or absence of 100 nM dasatinib.
(§1) FIG. 24. Dead Z138 cells upon first and second stimulation with 1 nM CD20-TCB in the presence and absence of 100 nM dasatinib in the assay of FIG. 23, as measured by flow cytometry. Cells were collected 20h after the first and 24 h after the second stimulation and stained with live dead NIR dye. Mean of technical replicates+/−SD. N=3 donors.
as §1, with “25.” for “24.”, “upon” for “upon first and”, “collected” for “collected 20h after the first and”, “after” for “after the”, “Three donors D1-D3 (A-C).” for “N=3 donors.”
A similar re-stimulation experiment was performed with a different TCB, targeting CD20 (CD20-TCB (SEQ ID NOs 28-35, 48-59), 1 nM), and the killing of Z138 target cells measured after the first and second stimulation (FIG. 23).

[1] = blood of mice; cited from earlier work
CD4+ and CD8+ T cells = assay: T cell proliferation (CTV dye dilution) and T cell counts in SKM-1 killing assay with HLA-A2 WT-1-TCB; format: cell-based, human
Experimental: FIG. 3. In vitro killing assay set-up and timelines. PBMCs were co-cultured with SKM-1 target cells (E:T=10:1) and 10 nM HLA-A2 WT-1-TCB. Dasatinib (100 nM) was added after 24 hours of activation. PBMCs were labelled with CellTrace™ Violet (CTV) to allow T cell proliferation assessment.
FIG. 6. T cell proliferation. In the assay of FIG. 3, proliferation of CD4+ (A) and CD8+ (B) T cells was measured by FACS 144h after stimulation with HLA-A2 WT-1 TCB by analysis of CTV dye dilution.
FIG. 7. Counts of CD4+ and CD8+ T cells. In the assay of FIG. 3, CD4+ (A) and CD8+(B) T cells counts were measured by FACS, mean of 3 donors+/−SD. paired t test, one tailed p value: 0.1234 (ns), 0.0332 (*), 0.0021 (**), 0.0002 (***), <0.0001 (****).
Furthermore, we assessed T cell proliferation 120 hours after the addition of 100 nM dasatinib in the killing assay by measuring the dilution peaks of the CellTrace™ violet (CTV) dye by flow cytometry.

CD20+ B cells = assay: CD19-TCB dependent B cell depletion in blood of humanized NSG mice; format: in vivo; conditions: 0.5 mg/kg CD19-TCB i.v. + 50 mg/kg dasatinib p.o. twice per day
Experimental: FIG. 32. Timelines and dosing schedule of in vivo experiment assessing effect of dasatinib (50 mg/kg) on CD19-TCB induced cytokine release and B cell depletion in humanized NSG mice. Humanized NSG mice were co-treated with 0.5 mg/kg CD19-TCB (i.v.) and 50 mg/kg dasatinib (p.o.) twice per day. Blood was collected by tail vein bleeding at 1.5 hrs, 6 hrs and 48 hrs after treatment with CD19-TCB. At 72 hrs, blood was collected retro-orbitally, before the termination of the experiment. N=4 mice per group.
FIG. 33. […] Representative flow cytometry dot plots of CD20+ B cells gated among human CD45+ cells in the blood (48 hrs) of animals treated with vehicle (A), 0.5 mg/kg CD19-TCB (B), or 0.5 mg/kg CD19-TCB and 50 mg/kg dasatinib (C).
FIG. 34. […] CD20+ B cell count was measured by flow cytometry in the blood of the animals from the experiment described in FIG. 32 at 48 hrs (A) and 72 hrs (B). Mean of n=4 mice+/−SEM. One way ANOVA, Kruskal Wallis test, p-value: 0.1234 (ns), 0.0332 (*), 0.0021 (**), 0.0001 (***), <0.0001 (****).
To verify whether dasatinib can prevent CD19-TCB-induced B cell depletion and cytokine release in vivo, humanized NSG mice were either treated with 0.5 mg/kg CD19-TCB or co-treated with 0.5 mg/kg CD19-TCB and 50 mg/kg dasatinib as illustrated in FIG. 32. To best mimick the pharmacodynamic profile of dasatinib in the clinic and to verify whether the resulting exposure would be sufficient to prevent CD19-TCB-induced T cell cytotoxicity and cytokine release, dasatinib was given per os twice per day.
At 48 hrs and 72 hrs, mice were bled and the CD20+ B cell count was measured by flow cytometry (FIG. 33). […] The half-life of dasatinib in blood of mice being around 6 hrs, the exposure of dasatinib was probably not sufficient to durably prevent CD19-TCB-induced T cell cytotoxicity, leading to partial activity of CD19-TCB.

[2] = tested on: IL-2, IFN-γ, TNF-α, IL-6, GM-CSF and IL-8 release; assay: CD19-TCB-induced cytokine release in the SUDLH-8 assay (Luminex); format: cell-based, human; conditions: 100 nM dasatinib, monohydrate
Experimental: The levels of IL-2 (A), IFN-γ (B), TNF-α (C), IL-6 (D), GM-CSF (E) and IL-8 (F) were measured by Luminex in the supernatant of the assay described in FIG. 26.
FIG. 31. […] The levels of IFN-γ (A), TNF-α (B), IL-2 (C), IL-6 (D), GM-CSF (E) and IL-8 (F) were measured by Luminex in the supernatant of the assay described in FIG. 26.
The killing of CTV labelled SUDLH-8 cells was measured by flow cytometry using a Live/Dead Near Infra Red (NIR) dye. […] The expression of CD69 and CD25 were measured on CD4+ (FIG. 28) and CD8+(FIG. 29) T cells by flow cytometry as a readout for T cell activation. […] Lastly, the cytokine levels were analyzed in the supernatants of the assay by Luminex to evaluate the effect of dasatinib on CD19-TCB-induced cytokine release (FIGS. 30 and 31).

[3] = tested on: IL-2, TNF-α, IFN-γ and IL-6; assay: CD19-TCB induced serum cytokine release in humanized NSG mice (Luminex); format: in vivo; conditions: 1.5 and 6 hrs post treatment, 50 mg/kg dasatinib p.o., monohydrate
Experimental: Serum was collected from blood samples collected 1.5 hrs post treatment with CD19-TCB in the experiment described in FIG. 32. The levels of IL-2 (A), TNF-α (B), IFN-γ (C) and IL-6 (D) are measured by Luminex. Mean of n=4 mice+/−SEM. One way ANOVA, Kruskal Wallis test, p-value: 0.1234 (ns), 0.0332 (*), 0.0021 (**), 0.0001 (***), <0.0001 (****).
Serum is collected from blood samples collected 6 hrs post treatment with CD19-TCB in the experiment described in FIG. 32. The levels of IL-2 (A), TNF-α (B), IFN-γ (C) and IL-6 (D) are measured by Luminex. Mean of n=4 mice+/−SEM. One way ANOVA, Kruskal Wallis test, p-value: 0.1234 (ns), 0.0332 (*), 0.0021 (**), 0.0001 (***), <0.0001 (****).
Lastly, mice were bled 1.5 and 6 hrs post treatment with CD19-TCB and dasatinib to collect serum for cytokine measurements by Luminex (FIGS. 35 and 36).

Structure (SMILES): Cc1nc(Nc2ncc(C(=O)Nc3c(C)cccc3Cl)s2)cc(N2CCN(CCO)CC2)n1 [dasatinib, N-(2-chloro-6-methylphenyl)-2-[[6-[4-(2-hydroxyethyl)-1-piperazinyl]-2-methyl-4-pyrimidinyl]amino]-5-thiazole carboxamide monohydrate]
- killing of CTV labelled Z138 target cells (ON/OFF versus ON/ON) (Z138 target cells): effectively prevented the killing
- half-life [1]: around 6 hrs
- TCB-induced T cell proliferation (CTV dilution) (CD4+ and CD8+ T cells; 100 nM dasatinib added at 24 h, 120 hours after addition, 10 nM HLA-A2 WT-1-TCB): inhibited TCB-induced T cell proliferation with a stronger impact on CD4+ T cells than CD8+ T cells
- CD4+ and CD8+ T cell counts (CD4+ and CD8+ T cells; 100 nM dasatinib versus positive control without dasatinib): significantly higher in positive control samples which were not treated with 100 nM dasatinib, than in samples treated with 100 nM dasatinib
- killing of CD20+ B cells by CD19-TCB (B cell count in blood) (CD20+ B cells; 48 hrs, listed as Dasatinib, monohydrate): prevents CD19-TCB dependent B cell depletion until 48 hrs post treatment
- killing of CD20+ B cells by CD19-TCB (B cell count in blood) (CD20+ B cells; 48 hrs, monohydrate): prevented killing
- killing of CD20+ B cells by CD19-TCB (B cell count in blood) (CD20+ B cells; 72 hrs): partially restored
- release of IL-2, IFN-γ, TNF-α, IL-6, GM-CSF and IL-8 [2]: prevents CD19-TCB-induced cytokine release; also recorded: prevented the release
- CD19-TCB-induced serum IL-2, TNF-α, IFN-γ and IL-6 ([3]; listed as Dasatinib): prevents CD19-TCB induced cytokine release in vivo
- CD19-TCB-induced serum IL-2, TNF-α, IFN-γ and IL-6 [3]: inhibited
